The source of these data is patent US8138148B2, “GDNF derived peptides” (Copenhagen University, priority 2005, dated 2012).

What all share (type): cell-based, rat
Experiment [1] concerns hippocampal neurons. Put plainly: Neurite outgrowth in co-cultures with pharmacological inhibitors (PP2, SU5402). The following applies: neurons on control or NCAM-expressing fibroblasts; for effect of inhibitor on GDNF-induced neurite outgrowth: 10 ng/ml GDNF, PP2 0.2-25 μM, SU5402 1-25 μM; for effect of inhibitor on G2-induced neurite outgrowth: 3 μg/ml G2, PP2 0.2-100 μM, SU5402 1-100 μM, 24 hours. The procedure: (§1) In monocultures, neurons are grown directly on plastic and the only neuritogenic stimulus is the one presented by the added substance. In co-cultures, neurons are grown on top of a confluent monolayer of fibroblasts expressing NCAM-140 (LBN110) or NCAM-negative control fibroblasts (LVN212). NCAM on the neurons interact with NCAM on LBN110 cells thereby stimulating neurite outgrowth from the neurons. This system thus permits the study of NCAM-NCAM interactions and interactions between NCAM and other molecules.
(§2) For cocultures, L-cells were seeded in 8-well LabTek® Permanox Chamber slides at a density of 100.000 cells/well, except for transfection experiments where cells were seeded in 4-well LabTek® Permanox Chamber slides at a density of 200.000 cells/well. L-cells were grown for 24 hours in DMEM supplemented with 10% (v/v) FCS, 1% (v/v) glutamax, 100 U/ml penicillin, 100 μg/ml streptomycin, 2.5 μg/ml fungizone, and 567 μg/ml neomycin (G418), followed by washing twice in neurobasal medium with supplements before primary hippocampal neurons were seeded at a density of 7.000 cells/well in 8-well slides or 20.000 cells/well in 4-well slides.
To evaluate the involvement different intracellular signal transduction pathways pharmacological inhibitors, in particular the FGFR inhibitor SU5402 and Fyn-kinase inhibitor PP2, were diluted to the appropriate concentrations and added to the neurons immediately after seeding. After 10 minutes GDNF, GDNFp1 or medium (controls) was added and cells were incubated for 24 hours.
(§3) Neurite outgrowth experiments were terminated after the stated time by fixating the cells. To visualize neurons and their neurites, immunostaining of GAP-43 was performed. This staining is specific for neurons. Transfected cells and their neurites should be visible without immunostaining due to the fluorescence emitted by GFP. […] GFP is a cytoplasmic protein, and since thin neurites only contain a small volume of cytoplasm, GFP is only found in small amounts in most neurites. Therefore, a double-staining protocol, where cells were immunostained against GFP and GAP-43, was adopted. This protocol allowed the identification of transfected cells on the basis of GFP-staining in combination with visualization of neurites based on GAP-43-staining.
Without prior removal of the medium 300 μl/well (8-well slides) or 500 μl/well (4-well slides) of a PBS solution containing 0.4 mM CaCl2, 0.05 M sucrose and 8% (v/v) formaldehyde was added to the cultures for 20 minutes. Cells were then washed 10 minutes in PBS followed by washing in PBS with 1% (w/v) BSA for 20 minutes, after which cells were incubated with primary antibodies overnight at 4° C. […]

Experiment [2] concerns primary hippocampal neurons. Put plainly: Neurite outgrowth assay, monocultures of primary hippocampal neurons. The conditions noted are these: monoculture, stimulated 24 hours; GDNF 1-100 ng/ml, peptides 0.1-27 μg/ml; versus medium alone. The protocol:
(§4) Two different versions of the neurite outgrowth assay were used in this study, monocultures and co-cultures.
as §1
(§5) For all experiments cells were grown in neurobasal medium with supplements as described above in a final volume of 300 μl/well in 8-well LabTek® Permanox Chamber slides or 500 μl/well in 4-well LabTek® Permanox Chamber slides.
For monocultures, primary hippocampal neurons were seeded in 8-well LabTek® Permanox Chamber slides at a density of 10,000 cells/well.
(§6) To evaluate the effect peptides on neurite outgrowth, GDNF and the peptides, G1, G2, G3, A1, A2, A3, N1, N2 and N3 were diluted to the appropriate concentrations and added to the neurons approximately 10 minutes after seeding. Medium alone was added to controls, and cells were incubated for 24 hours.
as §3, with “GAP-43-staining. […]” for “GAP-43-staining.”

The subject of experiment [3] is hippocampal neurons. Put plainly: Neurite outgrowth assay, co-cultures of hippocampal neurons on control fibroblasts or NCAM-expressing fibroblasts. The conditions noted are these: 24 hours; for neurite outgrowth, overall effect of treatment, neurons grown on NCAM-expressing fibroblasts: co-culture on NCAM-expressing fibroblasts; for neurite outgrowth, overall effect of treatment, neurons grown on NCAM-expressing fibroblasts / neurite outgrowth, overall effect of treatment, neurons grown on control fibroblasts: GDNF 1-100 ng/ml, peptides 0.1-81 μg/ml; for neurite outgrowth, overall effect of treatment, neurons grown on control fibroblasts: co-culture on control fibroblasts; for difference between neurite outgrowth on control fibroblasts and on NCAM-expressing fibroblasts across concentrations (one-way ANOVA): difference per concentration, expressed as percentage of control. The procedure: as §4, §1, §5, §2, §6, §3
Without prior removal of the medium 300 μl/well (8-well slides) or 500 μl/well (4-well slides) of a PBS solution containing 0.4 mM CaCl2, 0.05 M sucrose and 8% (v/v) formaldehyde was added to the cultures for 20 minutes. Cells were then washed 10 minutes in PBS followed by washing in PBS with 1% (w/v) BSA for 20 minutes, after which cells were incubated with primary antibodies overnight at 4° C.
Rabbit anti-rat GAP-43 antibodies were diluted 1:1000 for staining of untransfected cells and 1:2000 for staining of transfected cells. Mouse anti-GFP antibodies were diluted 1:1000. Antibodies were diluted in a PBS solution containing 7% (v/v) FCS to block unspecific binding, 50 mM glycine to block formaldehyde used for fixation, 0.2% (v/v) saponin to permeabilize cells, and 0.02% (v/v) NaN3 to preserve antibodies for later use.
The next day cells were washed 10 minutes in PBS followed by washing in PBS with 1% (w/v) BSA for 20 minutes. Cells were then incubated with secondary antibodies diluted in PBS with 1% (w/v) BSA for one hour at room temperature. Goat anti-rabbit IgG antibodies conjugated to Alexa 488 were diluted 1:1000 for untransfected cells and 1:2000 for transfected cells. Goat anti-mouse IgG antibodies conjugated to Alexa 546 were diluted 1:1000. Finally cells were washed 3×7 minutes in PBS and mounted with fluorescent mounting medium. […]

In experiment [4] the test system is hippocampal neurons. Put plainly: Neurite outgrowth of hippocampal neurons transfected with dominant negative FGFR. The conditions noted are these: 10 ng/ml GDNF or 3 μg/ml GDNFp1, 18 hours, dnFGFR vs empty vector. The protocol: as §2
Additionally, neurons were transiently transfected with a dominant negative version of the FGFR (dnFGFR), As an alternative to the use of a pharmacological FGFR inhibitor, The dnFGFR plasmid encodes an FGFR that lacks the kinase domain. This mutant receptor inhibits the function of wild type FGFR by engaging in dimers that lack kinase activity. Transfection with an empty vector served as control. Transfection was also done with wtFGFR in order to assess the effect of overexpressing the FGFR.
Transfections were performed with a Nucleofector™ device and a Rat Neuron Nucleofector™ kit (Amaxa Inc., Gaithersburg, Md., USA). This transfection method is based on electroporation in combination with a Nucleofector™ solution containing lipophilic agents. These agents form liposomes containing the plasmid DNA, which then enter the cells during electroporation. The method allows transfection of undividing cells such as neurons. 3 μg of the plasmid of interest was mixed with the Nucleofector™ solution and primary hippocampal neurons were resuspended in the mixture, electroporated in the Nucleofector™ device, and transferred to neurobasal medium with supplements and 5% (v/v) FCS. Cells were then incubated for 2 hours after which they were resuspended in medium without serum, counted, seeded and incubated for 6 hours before GDNF or GDNFp1 was added. Medium alone was added to control and cells were incubated for 18 hours.
All transient transfections in this study included co-transfection with a plasmid encoding EGFP, which allows the identification of transfected cells. To ensure that all EGFP-expressing cells also are transfected with the plasmid of interest, a ratio of […] between the EGFP-encoding plasmid and the plasmid of interest was used (i.e. 0.5 μg EGFP-encoding plasmid was used for each transfection).
Neurite outgrowth experiments were terminated after the stated time by fixating the cells. To visualize neurons and their neurites, immunostaining of GAP-43 was performed. This staining is specific for neurons. Transfected cells and their neurites should be visible without immunostaining due to the fluorescence emitted by GFP. […]

Take `CC(C)(C)n1nc(-c2ccc(Cl)cc2)c2c(N)ncnc21` [PP2]: in the experiment with hippocampal neurons [1], the “effect of inhibitor on GDNF-induced neurite outgrowth” value is “decreases GDNF-induced neurite outgrowth” and the “effect of inhibitor on G2-induced neurite outgrowth” value was “decreases G2-induced neurite outgrowth”.
As to “DLSFLDDNLVY (listed as Homo sapiens) [G3, GDNF fragment]”, the “neurite outgrowth, overall effect of treatment (one-way ANOVA)” value in experiment [2] is reported as “do not induce neurite outgrowth”. In the experiment with hippocampal neurons [3], the “neurite outgrowth, overall effect of treatment, neurons grown on NCAM-expressing fibroblasts” value was “overall statistical significant effect”; the “neurite outgrowth, overall effect of treatment, neurons grown on control fibroblasts” value is “no overall significant effect”; the “difference between neurite outgrowth on control fibroblasts and on NCAM-expressing fibroblasts across concentrations (one-way ANOVA)” value is reported as “mean differences are not all the same”. In the experiment with hippocampal neurons [3] (neurons on NCAM-expressing fibroblasts, 0.3-81 μg/ml), the “direction of the effect on NCAM-induced neurite outgrowth” value is “inhibitory at higher concentrations”.
Regarding `Cc1c[nH]c(/C=C2\C(=O)Nc3ccccc32)c1CCC(=O)O` [SU5402], in the experiment on hippocampal neurons [1], the “effect of inhibitor on GDNF-induced neurite outgrowth” value is “decreases GDNF-induced neurite outgrowth” and the “effect of inhibitor on G2-induced neurite outgrowth” value is listed as “decreases G2-induced neurite outgrowth”.

B1: GDNF: glial cell line-derived neurotrophic factor, full-length protein used as stimulus (protein)
chain: SPDKQMAVLPRRERNRQAAAANPENSRGKGRRGQRGKNRGCVLTAIHLNVTDLGLGYETKEELIFRYCSGSCDAAETTYDKILKNLSRNRRLVSDKVGQACCRPIAFDDDLSFLDDNLVYHILRKHSAKRCGCI
For B1, the “neurite outgrowth, overall effect of treatment (one-way ANOVA)” value in experiment [2] is given as “overall statistically significant effect”. Also, in the experiment with hippocampal neurons [3], the “neurite outgrowth, overall effect of treatment, neurons grown on NCAM-expressing fibroblasts” value is given as “overall significant effect”; the “neurite outgrowth, overall effect of treatment, neurons grown on control fibroblasts” value is given as “overall significant effect”; the “difference between neurite outgrowth on control fibroblasts and on NCAM-expressing fibroblasts across concentrations (one-way ANOVA)” value is reported as “mean differences are not all the same”. Further, the “neurite outgrowth mediated by the substance after transfection with dominant negative FGFR, on NCAM-expressing fibroblasts” value with hippocampal neurons [4] (NCAM-expressing fibroblasts) is given as “decreases neurite outgrowth”. In the experiment on hippocampal neurons [4] (control fibroblasts), the “neurite outgrowth mediated by the substance after transfection with dominant negative FGFR, on control fibroblasts” value was “decreases neurite outgrowth”.
